Here are results for 19 compounds from ChEMBL document CHEMBL4819050, “Discovery of a novel series of guanidinebenzoates as gut-restricted enteropeptidase and trypsin dual inhibitors for the treatment of metabolic syndrome” (Bioorg Med Chem Lett, 2021).

Series [1] is filed under the species Bos taurus. Description: Inhibition of bovine trypsin assessed as protease activity using D-CHA-AR-AMC as substrate at 0.1 uM by fluorescence assay relative to control. On the set-up: scale not given: the % may be the effect or the level left.
For series [2], the target named is Enteropeptidase (Homo sapiens) (UniProt P98073). Description: Inhibition of full length recombinant human EP expressed in CHO cells assessed as protease activity using […] as substrate at 0.1 uM by fluorescence assay relative to control. Also on record: scale not given: the % may be the effect or the level left.
Sequence of Enteropeptidase (Homo sapiens) (P98073 2-784 limits assumed): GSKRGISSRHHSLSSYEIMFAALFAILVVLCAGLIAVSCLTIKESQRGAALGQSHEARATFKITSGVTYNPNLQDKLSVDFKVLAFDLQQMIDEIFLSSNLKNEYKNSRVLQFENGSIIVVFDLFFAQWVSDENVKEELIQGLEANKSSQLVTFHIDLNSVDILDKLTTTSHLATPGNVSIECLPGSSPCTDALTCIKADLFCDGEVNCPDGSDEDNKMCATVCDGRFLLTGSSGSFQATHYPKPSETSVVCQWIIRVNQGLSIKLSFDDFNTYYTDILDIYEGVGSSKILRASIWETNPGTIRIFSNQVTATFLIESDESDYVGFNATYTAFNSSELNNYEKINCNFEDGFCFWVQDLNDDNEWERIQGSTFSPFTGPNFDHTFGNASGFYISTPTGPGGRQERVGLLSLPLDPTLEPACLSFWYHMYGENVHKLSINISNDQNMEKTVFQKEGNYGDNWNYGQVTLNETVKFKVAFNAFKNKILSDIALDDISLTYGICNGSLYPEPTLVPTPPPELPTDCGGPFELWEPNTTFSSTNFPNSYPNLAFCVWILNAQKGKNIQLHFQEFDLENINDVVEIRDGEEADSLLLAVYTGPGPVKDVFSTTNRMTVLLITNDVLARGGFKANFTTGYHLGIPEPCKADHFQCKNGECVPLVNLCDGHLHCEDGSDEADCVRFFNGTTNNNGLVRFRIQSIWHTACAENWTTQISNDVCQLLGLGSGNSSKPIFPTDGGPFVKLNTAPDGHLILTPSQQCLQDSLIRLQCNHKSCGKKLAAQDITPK
Sequence of Enteropeptidase (Homo sapiens) (P98073 785-1019 limits assumed): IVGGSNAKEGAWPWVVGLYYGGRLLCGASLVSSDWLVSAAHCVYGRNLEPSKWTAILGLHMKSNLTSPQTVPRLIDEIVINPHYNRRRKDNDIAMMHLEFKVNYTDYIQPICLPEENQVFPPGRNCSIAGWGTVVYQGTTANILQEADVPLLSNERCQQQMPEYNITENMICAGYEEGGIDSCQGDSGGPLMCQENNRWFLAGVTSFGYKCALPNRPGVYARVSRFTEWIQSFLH
Series [3] shares this target. Description: Inhibition of full length recombinant human EP expressed in CHO cells assessed as protease activity using […] as substrate at 1 uM by fluorescence assay relative to control. On the set-up: scale not given: the % may be the effect or the level left.
For series [4], the species on record is Bos taurus. As to the kind of experiment: Inhibition of bovine trypsin assessed as protease activity using D-CHA-AR-AMC as substrate at 10 uM by fluorescence assay relative to control. On the set-up: scale not given: the % may be the effect or the level left.
Series [5] has as its target Enteropeptidase (Homo sapiens) (UniProt P98073). Description: Inhibition of full length recombinant human EP expressed in CHO cells assessed as protease activity using […] as substrate at 10 uM by fluorescence assay relative to control. Also on record: scale not given: the % may be the effect or the level left.
For series [6], the species on record is Bos taurus. Description: Inhibition of bovine trypsin assessed as protease activity using D-CHA-AR-AMC as substrate at 1 uM by fluorescence assay relative to control. On the set-up: scale not given: the % may be the effect or the level left.
Series [7] in a line: Apparent permeability from apical to basolateral side in dog MDCK cells. The format is ADME, cell-based, Canis lupus familiaris.
For series [8], the species on record is Bos taurus. Description: Inhibition of bovine trypsin assessed as ratio of Kinact/Kiapp.
In series [9] the target is Enteropeptidase (Homo sapiens) (UniProt P98073). Description: Inhibition of full length recombinant human EP expressed in CHO cells assessed as ratio of Kinact/Kiapp. The series is classed as cell-based.
Series [10] can be described thus: In vivo inhibition of EP in diet induced obese C57BL/6J mouse assessed as increase in fecal protein content at 30 mg/kg, po measured after 24 hrs relative to control. The series is classed as functional.
Series [11] can be described thus: Clearance in C57BL/6J mouse at 5 mg/kg, iv. The settings on record: in vivo. The series is classed as ADME, organism-based.
Series [12] is described as follows: AUClast in C57BL/6J mouse at 20 mg/kg, po. On the set-up: route oral, time 0 - last, dose 20 mg/kg. The series is classed as ADME, organism-based. As to conditions: in vivo.
Series [13] can be described thus: Oral bioavailability in C57BL/6J mouse at 20 mg/kg. As to conditions: in vivo. The series is classed as ADME, organism-based.
The nature of series [14]: Volume of distribution at steady state in C57BL/6J mouse at 5 mg/kg, iv. As to conditions: in vivo, read-out: Vdss. The format is ADME, organism-based.
Series [15] in a line: Cmax in C57BL/6J mouse at 20 mg/kg, po. The series is classed as ADME, organism-based. Also on record: route oral, dose 20 mg/kg. The settings on record: in vivo.

The Papp A→B is the apparent permeability from the apical to the basolateral side of a cell layer. In the case of `N=C(N)Nc1ccc(C(=O)Oc2ccc(CC(=O)NCC(=O)O)n3ncnc23)cc1`, the Activity worked out at 99.7% in the series filed under Bos taurus [1]; 48.1% in [2]; 101% in series [3]; 100% in the series listed under Bos taurus [4]; 100% in series [5]; 100% in the series listed under Bos taurus [6]. Further, in [7], the Papp A→B worked out at 1.03 ×10⁻⁶ cm/s.

`CS(=O)(=O)NC(=O)Cc1ccc(OC(=O)c2ccc(NC(=N)N)cc2)c2ncnn12`: the Activity in the series filed under Bos taurus [1] stood at 98.8%; in series [2], 101%; in series [3] it was 100%; in the series listed under Bos taurus [4], 99.9%; in series [5], 100%; in the series filed under Bos taurus [6] it was 100%. Further, the Ratio is 163000 M⁻¹ s⁻¹ in the series filed under Bos taurus [8] and 181000 M⁻¹ s⁻¹ in series [9]. For the same compound, the apical-to-basolateral permeability (Papp A→B) in series [7] was 0.51 ×10⁻⁶ cm/s.

Consider `C#CCOCCOCC#Cc1ccc(CC(=O)O)n2ncnc12`, for which the Activity came to 52.9% in the series listed under Bos taurus [1]; 63% in series [2]; 98.5% in [3]; 100% in the series listed under Bos taurus [4]; 99.8% in [5]; 99.6% in the series listed under Bos taurus [6]. Also, the Ratio in the series filed under Bos taurus [8] was determined as 59400 M⁻¹ s⁻¹; in series [9], 52800 M⁻¹ s⁻¹.

Turning to `N=C(N)Nc1ccc(C(=O)Oc2ccc(CCC(=O)O)n3ccnc23)cc1`, the Activity in the series filed under Bos taurus [1] was 61%; in [2], 27.6%; in series [3] it was 95.1%; in the series listed under Bos taurus [4] it was 100%; in series [5], 100%; in the series listed under Bos taurus [6], 100%. In addition, the Ratio in [9] turned out to be 24400 M⁻¹ s⁻¹.

Regarding `N=C(N)Nc1ccc(C(=O)Oc2ccc(CC(=O)N(CC(=O)O)CC(=O)O)n3ncnc23)cc1`, the Activity in the series listed under Bos taurus [1] was 89.6%; in series [2], 20.9%; in series [3], 72.9%; in the series filed under Bos taurus [4], 100%; in [5], 101%; in the series listed under Bos taurus [6], 99.9%. The Papp A→B in series [7] stood at 1.26 ×10⁻⁶ cm/s. Moreover, the “fold change (FC)” value in series [10] worked out at 1.5.

As for `N=C(N)Nc1ccc(C(=O)Oc2ccc(Cc3nn[nH]n3)n3ncnc23)cc1`, the Activity in the series listed under Bos taurus [1] was determined as 89.3%; in series [2] it was 89.7%; in [3], 101%; in the series filed under Bos taurus [4], 100%; in [5] it was 100%; in the series filed under Bos taurus [6] it was 100%. Further, the apparent permeability from apical to basolateral (Papp A→B) in [7] was 1.45 ×10⁻⁶ cm/s.

As a reminder, the clearance is the volume of plasma or blood freed of the substance per unit of time. As a reminder, the AUC(0-t) is the area under the concentration-time curve up to a stated or last time point. As usually defined, the bioavailability is dose-corrected exposure relative to a reference, in per cent. As usually defined, the Cmax is the highest concentration seen after dosing. For `N=C(N)Nc1ccc(C(=O)Oc2ccc(CC(=O)O)n3ncnc23)cc1`, the Activity came out at 97.2% in the series listed under Bos taurus [1]; 97.8% in series [2]; 100% in [3]; 100% in the series filed under Bos taurus [4]; 100% in [5]; 100% in the series listed under Bos taurus [6]. Further, the clearance in [11] was found to be 192 mL/min/kg. The AUC(0-t) in series [12] came out at 27 ng·h/mL. This compound yielded a bioavailability in [13] of 1.6%. In addition, the Ratio in the series listed under Bos taurus [8] came to 159000 M⁻¹ s⁻¹; in [9], 130000 M⁻¹ s⁻¹. Also, the Vd in series [14] worked out at 3.68 L/kg. Moreover, the maximum concentration (Cmax) in [15] was 43 ng/mL. In [7], the Papp A→B came to 1.53 ×10⁻⁶ cm/s. Also, the “fold change (FC)” value in series [10] stood at 2.4.

Turning to `N=C(N)Nc1ccc(C(=O)Oc2ccc(CC(=O)O)n3ncnc23)cc1F`, the Activity in the series filed under Bos taurus [1] came to 87.6%; in series [2], 96.8%; in series [3], 100%; in the series filed under Bos taurus [4], 100%; in [5], 100%; in the series listed under Bos taurus [6], 100%. Moreover, the Ratio turned out to be 69700 M⁻¹ s⁻¹ in the series filed under Bos taurus [8] and 72800 M⁻¹ s⁻¹ in [9].

As for `N=C(N)Nc1ccc(C(=O)Oc2ccc(CC(=O)NC(CC(=O)O)(CC(=O)O)CC(=O)O)n3ncnc23)cc1`, the Activity in the series filed under Bos taurus [1] was determined as 94.1%; in series [2] it was 37.8%; in series [3], 100%; in the series filed under Bos taurus [4], 100%; in series [5] it was 100%; in the series filed under Bos taurus [6] it was 100%. Further, in series [7], the apparent permeability from apical to basolateral (Papp A→B) was determined as 1.09 ×10⁻⁶ cm/s. In addition, in series [10], the “fold change (FC)” value came to 1.7.

`N=C(N)Nc1ccc(C(=O)Oc2ccc(CC(=O)N[C@@H](CC(=O)O)C(=O)O)n3ncnc23)cc1`: the Activity is 98.3% in the series listed under Bos taurus [1]; 48.3% in series [2]; 101% in series [3]; 100% in the series filed under Bos taurus [4]; 101% in series [5]; 100% in the series listed under Bos taurus [6]. The Papp A→B in series [7] is 0.56 ×10⁻⁶ cm/s. Also, the “fold change (FC)” value in series [10] came to 2.4.

For the compound `CNC(=N)Nc1ccc(C(=O)Oc2ccc(CC(=O)O)n3ncnc23)cc1`, the Activity in the series filed under Bos taurus [1] amounted to 9.6%; in series [2], 15.3%; in [3], 80.1%; in the series listed under Bos taurus [4] it was 97.7%; in series [5] it was 97.9%; in the series filed under Bos taurus [6], 57.1%.

As to `N=C(N)Nc1ccc(C(=O)Oc2ccc(CC(=O)N[C@@H](CC(=O)O)C(=O)O)n3ccnc23)cc1`, the Activity in the series listed under Bos taurus [1] worked out at 99.3%; in series [2] it was 81.2%; in [3] it was 100%; in the series listed under Bos taurus [4], 100%; in series [5], 100%; in the series listed under Bos taurus [6], 100%. Further, in [7], the apical-to-basolateral permeability (Papp A→B) worked out at 0.75 ×10⁻⁶ cm/s.

As for `N=C(N)Nc1ccc(C(=O)Oc2ccc(CC(=O)O)n3ncnc23)c2ccoc12`, the Activity stood at 14.6% in the series filed under Bos taurus [1]; 36.3% in series [2]; 98.8% in series [3]; 99.9% in the series listed under Bos taurus [4]; 100% in series [5]; 80% in the series filed under Bos taurus [6].

Take `N=C(N)NCc1ccc(C(=O)Oc2ccc(CC(=O)O)n3ncnc23)cc1`: the Activity is 3.87% in the series filed under Bos taurus [1]; 10.9% in [2]; 43.7% in series [3]; 72.5% in the series filed under Bos taurus [4]; 83.6% in series [5]; 19.9% in the series filed under Bos taurus [6].

`O=C(O)Cc1ccc(OC(=O)c2ccc(NC3=NCCCN3)cc2)c2ncnn12`: the Activity in the series listed under Bos taurus [1] was 2.91%; in [2], 1.03%; in series [3], -2%; in the series listed under Bos taurus [4], -7.38%; in series [5] it was -10.4%; in the series filed under Bos taurus [6], -3.49%.

With `N=C(N)Nc1ccc(C(=O)Oc2ccc(CCC(=O)O)n3ncnc23)cc1`, the Activity in the series listed under Bos taurus [1] was found to be 99.8%; in series [2] it was 35%; in series [3], 101%; in the series filed under Bos taurus [4], 100%; in series [5] it was 100%; in the series filed under Bos taurus [6], 100%.

Turning to `N=C(N)Nc1ccc(C(=O)Oc2cc(CCC(=O)O)cn3ncnc23)cc1`, the Activity came out at 99.2% in the series filed under Bos taurus [1]; 45.2% in series [2]; 103% in series [3]; 100% in the series filed under Bos taurus [4]; 101% in series [5]; 100% in the series filed under Bos taurus [6]. The Papp A→B in [7] stood at 1.12 ×10⁻⁶ cm/s.

With `N=C(N)Nc1ccc(C(=O)Oc2ccc(C3OC(=O)NC3=O)n3ncnc23)cc1` (centres undefined), the Activity is 99.8% in the series listed under Bos taurus [1]; 73% in series [2]; 101% in [3]; 100% in the series filed under Bos taurus [4]; 100% in series [5]; 100% in the series filed under Bos taurus [6].

For the compound `N=C(N)Nc1ccc(C(=O)Oc2ccc(CC(=O)O)n3ccnc23)cc1`, the Activity in the series filed under Bos taurus [1] stood at 96.3%; in series [2], 101%; in series [3], 100%; in the series listed under Bos taurus [4] it was 101%; in series [5], 100%; in the series filed under Bos taurus [6], 101%. Further, the Ratio in the series filed under Bos taurus [8] is 111000 M⁻¹ s⁻¹; in [9] it was 210000 M⁻¹ s⁻¹. Also, the Papp A→B in [7] stood at 1.48 ×10⁻⁶ cm/s.
